Target: T1, recombinant mouse NPY5-receptor (mNPY5) (Mus musculus, UniProt O70342)
T1 construct: The full-length cDNA encoding the mouse NPY5 (mNPY5) receptor was amplified from mouse brain cDNA; expressed in transfected cells; membranes used
T1 sequence (O70342 1-466): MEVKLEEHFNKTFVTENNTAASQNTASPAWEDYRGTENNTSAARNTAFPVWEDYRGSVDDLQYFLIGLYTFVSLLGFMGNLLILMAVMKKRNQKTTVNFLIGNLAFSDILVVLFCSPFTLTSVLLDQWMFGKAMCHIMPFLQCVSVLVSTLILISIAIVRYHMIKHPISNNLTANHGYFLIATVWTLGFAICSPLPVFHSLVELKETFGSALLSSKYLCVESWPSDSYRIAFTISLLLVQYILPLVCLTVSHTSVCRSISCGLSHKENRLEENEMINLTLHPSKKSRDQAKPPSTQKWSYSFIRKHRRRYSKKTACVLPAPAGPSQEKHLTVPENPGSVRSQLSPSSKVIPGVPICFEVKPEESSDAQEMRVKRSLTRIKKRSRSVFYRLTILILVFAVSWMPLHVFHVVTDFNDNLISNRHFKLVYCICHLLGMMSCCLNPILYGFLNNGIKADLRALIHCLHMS
Assay: Radioligand competition binding
Details: displacement of 100 pM [125I]labelled peptide YY (PYY), membranes of HEK293 cells expressing mNPY5, 1 h at 22° C.
Excerpt: The full-length cDNA encoding the mouse NPY5 (mNPY5) receptor was amplified from mouse brain cDNA using specific primers, designed based on the published sequence, and Pfu DNA-Polymerase (Stratagene). The amplification product was subcloned into the mammalian expression vector pcDNA3 using Eco RI and XhoI restriction sites. Positive clones were sequenced and one clone, encoding the published sequence (see Borowsky B., et al., Regul. Pept., 75-76:45-53 (1998)) was selected for generation of stable cell clones.
Human embryonic kidney 293 (HEK293) (ATCC No. CRL-1573) cells were transfected with 10 μg mNPY5 DNA using the lipofectamine reagent (Gibco BRL) according to the manufacturer's instruction. Two days after transfection, geneticin selection (1 mg/ml) was initiated and several stable clones were isolated. One clone was further used for pharmacological characterization.
Human embryonic kidney 293 cells (HEK293), expressing recombinant mouse NPY5-receptor (mNPY5) were broken by three freeze/thawing cycles in hypotonic Tris buffer (5 mM, pH 7.4, 1 mM MgCl2), homogenized and centrifuged at 72,000×g for 15 min. […] Protein was determined according to the method of Lowry using bovine serum albumine (BSA) as a standard. […]

| IC50 | SMILES |
| --- | --- |
| 700 pM | Cc1cc(N2CCCC2)c2ccc(NCC(C)C)cc2n1 [Example 2, isobutyl-(2-methyl-4-pyrrolidin-1-yl-quinolin-7-yl)-amine] |
| 300 pM | Cc1cc(N2CCCC2)c2ccc(NC(=O)c3ccco3)cc2n1 [Example 54, furan-2-carboxylic acid (2-methyl-4-pyrrolidin-1-yl-quinolin-7-yl)-amide] |

— patent US6696467B2, “Quinoline derivatives” (Hoffmann-La Roche Inc., priority 2002, dated 2004)
